In article PMC5394417, “Investigating the molecular mechanism of positive and negative allosteric modulators in the calcium-sensing receptor dimer” (Scientific Reports, 2017):

Key:
[1] = target: T1, HA-F801A CaSR mutant (ICL3 mutant) (Rattus norvegicus, UniProt P48442, F801A); assay: IP-One assay, HEK293T transiently transfected; assay type: cell-based
T1 construct: mGluR5 signal peptide (N); expressed in transfected cells; host or cells: HEK293T

[2] = target: T2, HA-S170A/D190A CaSR mutant (Rattus norvegicus, UniProt P48442, D190A/S170A); assay: IP-One assay, HEK293T transiently transfected; assay type: cell-based
T2 construct: mGluR5 signal peptide (N); expressed in transfected cells; host or cells: HEK293T
T2 sequence (P48442 20-1079 S170A/D190A): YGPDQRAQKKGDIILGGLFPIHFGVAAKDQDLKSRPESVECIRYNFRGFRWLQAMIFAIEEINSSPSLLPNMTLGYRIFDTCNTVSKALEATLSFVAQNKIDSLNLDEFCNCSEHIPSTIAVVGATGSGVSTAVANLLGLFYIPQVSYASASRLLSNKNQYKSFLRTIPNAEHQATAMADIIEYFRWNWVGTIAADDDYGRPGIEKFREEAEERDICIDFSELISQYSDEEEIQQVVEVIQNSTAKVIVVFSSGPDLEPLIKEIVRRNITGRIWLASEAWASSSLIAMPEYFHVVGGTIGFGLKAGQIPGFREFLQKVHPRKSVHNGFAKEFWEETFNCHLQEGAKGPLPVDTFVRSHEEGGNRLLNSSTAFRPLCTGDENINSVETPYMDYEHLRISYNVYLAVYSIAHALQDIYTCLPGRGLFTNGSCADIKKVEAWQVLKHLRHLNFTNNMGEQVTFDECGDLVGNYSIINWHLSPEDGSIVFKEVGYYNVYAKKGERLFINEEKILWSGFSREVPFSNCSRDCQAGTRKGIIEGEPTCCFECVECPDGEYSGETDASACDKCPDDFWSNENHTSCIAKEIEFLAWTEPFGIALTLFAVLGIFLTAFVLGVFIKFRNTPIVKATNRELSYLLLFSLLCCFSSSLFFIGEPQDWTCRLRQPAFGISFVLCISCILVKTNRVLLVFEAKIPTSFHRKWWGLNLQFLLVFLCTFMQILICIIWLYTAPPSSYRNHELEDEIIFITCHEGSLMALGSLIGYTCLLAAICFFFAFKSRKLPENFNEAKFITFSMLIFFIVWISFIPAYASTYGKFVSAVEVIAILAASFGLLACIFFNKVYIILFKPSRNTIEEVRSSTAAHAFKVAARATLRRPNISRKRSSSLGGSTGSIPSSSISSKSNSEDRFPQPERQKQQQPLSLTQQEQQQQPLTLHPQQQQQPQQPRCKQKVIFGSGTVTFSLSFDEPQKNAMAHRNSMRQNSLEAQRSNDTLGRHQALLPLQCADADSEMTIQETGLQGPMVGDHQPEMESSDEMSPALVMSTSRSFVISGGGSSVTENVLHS

[3] = normalized to maximum response of WT CaSR

T1 sequence (P48442 20-1079 F801A): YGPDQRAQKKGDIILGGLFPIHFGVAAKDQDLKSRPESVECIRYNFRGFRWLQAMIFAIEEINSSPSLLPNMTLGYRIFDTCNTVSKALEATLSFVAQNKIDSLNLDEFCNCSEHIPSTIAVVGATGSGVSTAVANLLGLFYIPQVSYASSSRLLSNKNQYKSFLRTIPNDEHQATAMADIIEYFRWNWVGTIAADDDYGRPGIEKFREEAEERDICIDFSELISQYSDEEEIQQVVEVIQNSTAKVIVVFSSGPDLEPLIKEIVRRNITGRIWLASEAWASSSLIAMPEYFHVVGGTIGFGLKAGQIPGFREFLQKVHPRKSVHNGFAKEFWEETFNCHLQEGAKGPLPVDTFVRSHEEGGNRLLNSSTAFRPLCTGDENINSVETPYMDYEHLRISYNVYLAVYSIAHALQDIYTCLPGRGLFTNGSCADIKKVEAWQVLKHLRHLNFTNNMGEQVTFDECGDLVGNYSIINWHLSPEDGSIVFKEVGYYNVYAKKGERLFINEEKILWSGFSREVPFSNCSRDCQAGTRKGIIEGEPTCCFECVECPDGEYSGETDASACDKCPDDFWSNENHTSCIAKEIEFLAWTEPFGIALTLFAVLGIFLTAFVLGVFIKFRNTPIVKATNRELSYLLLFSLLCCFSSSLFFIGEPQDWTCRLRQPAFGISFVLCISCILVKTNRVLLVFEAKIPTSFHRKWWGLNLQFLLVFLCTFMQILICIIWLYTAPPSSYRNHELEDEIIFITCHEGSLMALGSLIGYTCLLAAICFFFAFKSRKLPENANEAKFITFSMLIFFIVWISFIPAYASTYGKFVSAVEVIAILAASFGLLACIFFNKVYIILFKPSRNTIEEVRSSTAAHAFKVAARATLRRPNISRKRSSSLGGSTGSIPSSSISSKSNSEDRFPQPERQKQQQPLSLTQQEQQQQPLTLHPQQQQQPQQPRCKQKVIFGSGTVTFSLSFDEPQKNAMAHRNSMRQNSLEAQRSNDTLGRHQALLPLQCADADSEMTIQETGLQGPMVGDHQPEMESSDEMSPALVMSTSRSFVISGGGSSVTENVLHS

Q: Which EC50 ([1]; Ca^2+ alone) does the source give for `[Ca+2]` [Ca^2+] here?
A: Its EC50 is greater than 30 mM.

Q: And the “Max ± S.E.M.” value [1, 3]?
A: The value was 5.8 ± 0.4%.

Q: What about the EC50 ([2]; Ca^2+ alone) of the same compound?
A: The EC50 was 31.8 mM.

Q: What about the “Hill coefficient ± S.E.M.” value ([2]; Ca^2+ alone) of the same compound?
A: Its value is 4.05 ± 0.43.

Q: What about the “pEC50 ± S.E.M.” value ([2]; Ca^2+ alone) of the same compound?
A: Its value is 1.50 ± 0.04.

Q: What about the “Max ± S.E.M.” value [2, 3] of the same compound?
A: The value was 49 ± 2.5%.
